Laboratory results reported in the supplement of paper PMC13380429.

What was measured:
Settings in all cases: 72 h
Calu-3 [1] = test: relative viability EC50 (midpoint between 100% and the lowest measured viability); higher = less toxic
Vero E6 [2] = test: as above
Caco-2 [3] = test: as above
U2OS [4] = test: as above
HepG2 [5] = test: as above
Calu-3 [6] = test: cell viability relative to DMSO; higher = less toxic
Vero E6 [7] = test: as above
Caco-2 [8] = test: as above
U2OS [9] = test: as above
HepG2 [10] = test: as above
Calu-3 [11] = test: drug sensitivity score (DSS) for viability; higher = more toxic; extreme values may be limits of the assay
Vero E6 [12] = test: as above
Caco-2 [13] = test: as above
U2OS [14] = test: as above
HepG2 [15] = test: as above

SMILES | relative viability EC50 (Calu-3 [1]) [µM] | relative viability EC50 (Vero E6 [2]) [µM] | relative viability EC50 (Caco-2 [3]) [µM] | relative viability EC50 (U2OS [4]) [µM] | relative viability EC50 (HepG2 [5]) [µM] | cell viability (Calu-3 [6]; 1 nM) [%] | cell viability (Calu-3 [6]; 10 nM) [%] | cell viability (Calu-3 [6]; 100 nM) [%] | cell viability (Calu-3 [6]; 1000 nM) [%] | cell viability (Calu-3 [6]; 10000 nM) [%] | cell viability (Vero E6 [7]; 1 nM) [%] | cell viability (Vero E6 [7]; 10 nM) [%] | cell viability (Vero E6 [7]; 100 nM) [%] | cell viability (Vero E6 [7]; 1000 nM) [%] | cell viability (Vero E6 [7]; 10000 nM) [%] | cell viability (Caco-2 [8]; 1 nM) [%] | cell viability (Caco-2 [8]; 10 nM) [%] | cell viability (Caco-2 [8]; 100 nM) [%] | cell viability (Caco-2 [8]; 1000 nM) [%] | cell viability (Caco-2 [8]; 10000 nM) [%] | cell viability (U2OS [9]; 1 nM) [%] | cell viability (U2OS [9]; 10 nM) [%] | cell viability (U2OS [9]; 100 nM) [%] | cell viability (U2OS [9]; 1000 nM) [%] | cell viability (U2OS [9]; 10000 nM) [%] | cell viability (HepG2 [10]; 1 nM) [%] | cell viability (HepG2 [10]; 10 nM) [%] | cell viability (HepG2 [10]; 100 nM) [%] | cell viability (HepG2 [10]; 1000 nM) [%] | cell viability (HepG2 [10]; 10000 nM) [%] | drug sensitivity score (Calu-3 [11]) | drug sensitivity score (Vero E6 [12]) | drug sensitivity score (Caco-2 [13]) | drug sensitivity score (U2OS [14]) | drug sensitivity score (HepG2 [15])
CCC(=O)O[C@@H]1CC(=O)O[C@H](C)C/C=C/C=C/[C@H](OC(C)=O)[C@H](C)C[C@H](CC=O)[C@H](O[C@@H]2O[C@H](C)[C@@H](O[C@H]3C[C@@](C)(OC(C)=O)[C@@H](OC(=O)CC)[C@H](C)O3)[C@H](N(C)C)[C@H]2O)[C@H]1OC [miocamycin] | > 10 | > 10 | > 10 | > 10 | > 10 | 91.1 | 104 | 85.1 | 92.8 | 82.4 | 97.5 | 96.8 | 96.4 | 99.1 | 96.7 | 98.4 | 102 | 96.5 | 96.5 | 85.6 | 96.9 | 98.7 | 97.9 | 99.7 | 92.4 | 96.2 | 90.8 | 103 | 90.6 | 90 | 0.9 | 0 | 0.4 | 0 | 0
CN1CCc2c(c3ccccc3n2Cc2ccc(C(=O)NO)cc2)C1 [tubastatin-A] | > 10 | > 10 | > 10 | > 10 | 2.02 | 108 | 93.5 | 99.6 | 89.9 | 81.5 | 98.7 | 102 | 101 | 102 | 78.3 | 97.2 | 91.2 | 99 | 93.3 | 88.9 | 102 | 97 | 99.3 | 89.2 | 84 | 107 | 104 | 90.1 | 90.9 | 36.9 | 1.2 | 0.6 | 0 | 1 | 5
Oc1ccc(Cl)c2cccnc12 [cloxyquin] | > 10 | > 10 | > 10 | > 10 | > 10 | 87.9 | 100 | 96 | 106 | 105 | 99.7 | 105 | 99.9 | 101 | 97.7 | 96.1 | 98.1 | 104 | 96.9 | 95 | 94.4 | 99.3 | 99.4 | 99.8 | 97.4 | 102 | 98.9 | 116 | 93.4 | 88.2 | 0 | 0 | 0 | 0 | 0.3
NC(=O)c1[nH]cnc1O [SM-108] | > 10 | > 10 | > 10 | > 10 | > 10 | 96.2 | 89 | 101 | 107 | 99.8 | 102 | 108 | 99.7 | 103 | 100 | 91.2 | 101 | 102 | 104 | 97.9 | 100 | 95.7 | 104 | 96.6 | 104 | 95 | 93.9 | 95.8 | 102 | 98.7 | 0 | 0 | 0 | 0 | 0
COc1cc(C(=O)c2c(C)oc3c(O)c(OC)ccc23)cc(OC)c1OC [BNC105] | 0.0078 | < 0.001 | < 0.001 | 0.0073 | 0.0055 | 106 | 54.6 | 33.7 | 39.2 | 30.9 | 34.9 | 22.7 | 22.8 | 27.9 | 30.4 | 62.8 | 39.6 | 41.4 | 37.9 | 41.1 | 100 | 44.7 | 20.9 | 19.3 | 19.7 | 86.2 | 60.4 | 42.6 | 35.7 | 38 | 27 | 38.3 | 30.3 | 31.5 | 24.7
NC(=O)C1CCCc2c1[nH]c1ccc(Cl)cc21 (stereo not given) [EX-527] | > 10 | > 10 | > 10 | > 10 | > 10 | 107 | 101 | 107 | 96.6 | 94.7 | 94.1 | 107 | 93.7 | 98.9 | 109 | 99.7 | 94.8 | 98.5 | 92 | 103 | 95.9 | 93.2 | 105 | 93.4 | 98.1 | 93.3 | 107 | 98 | 110 | 106 | 0 | 0 | 0 | 0 | 0
CN1CCC(=C2c3ccccc3CCn3c(C=O)cnc32)CC1 [alcaftadine] | > 10 | > 10 | > 10 | > 10 | > 10 | 99.3 | 99.5 | 100 | 87.4 | 105 | 89.4 | 99.4 | 87.1 | 91.6 | 107 | 98.1 | 90.6 | 93.8 | 98.5 | 110 | 108 | 101 | 101 | 97.7 | 99.6 | 92.7 | 97.2 | 103 | 101 | 104 | 0 | 0 | 0 | 0 | 0
C=C1CC[C@H](O)C/C1=C/C=C1\CCC[C@]2(C)[C@@H]([C@H](C)CCCC(C)(C)O)CC[C@@H]12 [calcifediol] | > 10 | > 10 | > 10 | > 10 | > 10 | 98.2 | 91.4 | 78.8 | 103 | 107 | 98.9 | 95 | 98.1 | 97.3 | 97 | 107 | 90.2 | 107 | 92.3 | 91.8 | 106 | 97.5 | 105 | 98.1 | 95 | 92.6 | 103 | 97.1 | 103 | 101 | 0 | 0 | 0 | 0 | 0
Nc1nc(CC(=O)Nc2ccc(CCNC[C@H](O)c3ccccc3)cc2)cs1 [mirabegron] | > 10 | > 10 | > 10 | > 10 | > 10 | 93.8 | 97 | 100 | 110 | 108 | 99.1 | 96.3 | 101 | 93.2 | 103 | 99.8 | 100 | 97.7 | 108 | 92.2 | 102 | 98.2 | 93.6 | 102 | 97.5 | 104 | 96.6 | 104 | 93.2 | 102 | 0 | 0 | 0 | 0 | 0
OC[C@H]1O[C@@H](Oc2cc(O)cc(/C=C/c3ccc(O)cc3)c2)[C@H](O)[C@@H](O)[C@@H]1O [polydatin] | > 10 | > 10 | > 10 | > 10 | > 10 | 100 | 101 | 96.9 | 103 | 102 | 101 | 104 | 95.7 | 100 | 99 | 99.4 | 97.2 | 97.4 | 101 | 96.3 | 101 | 103 | 102 | 99.4 | 98.2 | 98.1 | 93.9 | 93.2 | 96.6 | 96.8 | 0 | 0 | 0 | 0 | 0
COCCN1CCN(Cc2ccc(-c3n[nH]c4c3C(=O)c3c(NC(=O)NN5CCOCC5)cccc3-4)cc2)CC1 | 0.165 | 0.306 | 0.186 | 0.269 | 0.0894 | 105 | 109 | 86.5 | 39 | 55.8 | 97.8 | 102 | 98.2 | 13.1 | 12.5 | 97.9 | 102 | 91.1 | 49 | 55 | 102 | 107 | 94.5 | 9.8 | 19 | 107 | 99.8 | 51 | 15.4 | 11.3 | 13.4 | 16 | 10.8 | 17.1 | 21.9
